Measurements published in patent US20170231929A1, “METHOD FOR ENHANCING IMMUNE CELL FUNCTION AND METHOD FOR ASSESSING IMMUNE CELL MULTIFUNCTIONALITY” (NATIONAL UNIVERSITY CORPORATION OKAYAMA UNIVERSITY, priority 2014, published 2017).
“And” between values parts separate entries of the source, which are not always exact repeats. Equal values may be shown once. “Also recorded” adds a separate entry of the source.

Tested on: CD8^+T cells
Assay: Multifunctionality of CD8^+T cells of healthy subjects after metformin treatment of PBMC (flow cytometer)
Assay type: cell-based, human
Method: 1. Peripheral blood was obtained from a test subject, and PBMC was separated by a density-gradient centrifugation using a lymphocyte-separating reagent Ficoll-Paque® (GE Healthcare). 3 mL of Ficoll-Paque® was dispensed in a 15-mL tube. 8 mL of the peripheral blood was gently placed on the reagent. At this time, care should be taken not to mix Ficoll-Paque® with the peripheral blood. Centrifugation was performed at 400 g for 30 minutes, thereby separating PBMC. 2. The separated PBMC was preserved in a −150° C. freezer or liquid nitrogen using Bambang Car cell preservation liquid by adjusting the cell number to 2.0×10^6 cell/tube. 3. In the test, the thawed PBMC was cultured for 1 to 10 hours in the presence or absence of […]. The culture was performed using a 24-well plate, and the cell number was adjusted to about 5.0×10^5 cell/well. 4. The cells were collected after 1 to 10 hours, washed with medium, and cultured in the presence of a cell activation reagent (potent nanomolar activator of protein kinase C (PMA, 50 ng/mL), ionomycin (1 μM)) for 6 hours, thereby non-specifically stimulating T cells. At this time, BD Gorgi Stop™ was added to keep the produced cytokines inside the cells. 5. The cells were isolated and washed twice with a cell-staining buffer. First, staining of CD8, PD-1, Tim-3, which are molecules expressed on the T cell surface, was performed. In the staining, a staining buffer was added in an amount of 50 μL per sample. The culture was performed at 4° C. for 30 minutes. 6. The cells were collected and washed twice with a cell-staining buffer. 500 μL of BD Cytofix/Cytoperm was added and cultured at 4° C. for 30 minutes. 7. The cells were collected and washed twice with BD Perm/Wash™. Staining of cytokines IL-2, TNFα, and IFNγ was performed. In the staining, BD Perm/Wash™ was added in an amount of 50 μL per sample. The culture was performed at 4° C. for 30 minutes. 8. The cells were collected and washed twice with BD Perm/Wash™, and 200 μL of BD Perm/Wash™ was added. 9. Analysis was performed using a FACSCanto™ II flow cytometer (Becton, Dickinson and Company).
Among the PBMC treated with PMA/ionomycin in the method shown in (2) above, first, a gate was applied to CD8^+T cells using a FACSCanto™ II flow cytometer (Becton, Dickinson and Company), and then […] were removed by FSC-A and FSC-H. Using parameters FSC-A and SSC-A, a gate was applied to a lymphocyte group, thereby analyzing expression of PD-1 and Tim-3. Further, intracellular cytokines IFNγ, TNFα, and IL-2 were stained, and multifunctionality of CD8^+T cells contained in the PBMC was analyzed (FIG. 1).
PBMC obtained from healthy subjects (N=10) was cultured for an hour in the presence or absence of metformin by the method shown in (2). After metformin was removed, the PBMC was subjected to stimulating culture with PMA/ionomycin for 6 hours by the method shown in (3). Among the resulting PBMC, CD8^+T cells capable of simultaneously producing three kinds of cytokines, i.e., IFNγ, TNFα, and IL-2, were detected. The CD8^+T cells untreated with metformin were determined to be 0.11%, and the CD8^+T cells treated with metformin were determined to be 0.09% (FIG. 2). Accordingly, it was judged that multifunctionality of CD8^+T cells was not increased by a metformin treatment in healthy subjects.
In the PBMC of healthy subjects treated as above, the ratios of CD8^+T cells producing three kinds of cytokines (IFNγ/TNFα/IL-2), CD8^+T cells producing two kinds of cytokines (IFNγ/TNFα or IFNγ/IL-2), and CD8^+T cells producing one kind of cytokine (IFNγ) to the entire CD8^+T cells were calculated and shown in Table 1. The calculation results were compared between the metformin-untreated group (control) and the metformin-treated group (metformin).

[1] = PD-1+, Tim-3+, Healthy Subjects, subjects/total
[2] = PD-1+, Tim-3−, Healthy Subjects, subjects/total
[3] = PD-1−, Tim-3+, Healthy Subjects, subjects/total
[4] = PD-1−, Tim-3−, Healthy Subjects, subjects/total
[5] = Total CD8T, Healthy Subjects, subjects/total
[6] = healthy subjects, PBMC cultured an hour with metformin, then PMA/ionomycin 6 hours, each table row = one subject
[7] = healthy subjects, each table row = one subject
[8] = total CD8^+T cells, healthy subjects

With `CN(C)C(=N)N=C(N)N` [metformin] the “Decrease, IFNγ 1-cytokine-producing cell” value [1] was 4/10, the “Decrease, IFNγ/IL-2 2-cytokine-producing cell” value [1] was 4/10 and the “Decrease, IFNγ/TNFα 2-cytokine-producing cell” value [1] was 6/10. For the same molecule, the “Decrease, IFNγ/TNFα/IL2 3-cytokine-producing cell” value [1] was 1/10, the “Increase, IFNγ 1-cytokine-producing cell” value [1] was 6/10 and the “Increase, IFNγ/IL-2 2-cytokine-producing cell” value [1] was 2/10. The “Increase, IFNγ/TNFα 2-cytokine-producing cell” value [1] was 3/10, the “Increase, IFNγ/TNFα/IL2 3-cytokine-producing cell” value [1] was 3/10 and 5/10 and the “No Change, IFNγ 1-cytokine-producing cell” value [1] was 0/10. The “No Change, IFNγ/IL-2 2-cytokine-producing cell” value [1] was 4/10, the “No Change, IFNγ/TNFα 2-cytokine-producing cell” value [1] was 1/10 and the “No Change, IFNγ/TNFα/IL2 3-cytokine-producing cell” value [1] was 4/10. The “Decrease, IFNγ 1-cytokine-producing cell” value [2] was 5/10, the “Decrease, IFNγ/IL-2 2-cytokine-producing cell” value [2] was 6/10 and the “Decrease, IFNγ/TNFα 2-cytokine-producing cell” value [2] was 4/10. The “Decrease, IFNγ/TNFα/IL2 3-cytokine-producing cell” value [2] was 5/10, the “Increase, IFNγ 1-cytokine-producing cell” value [2] was 2/10 and the “Increase, IFNγ/IL-2 2-cytokine-producing cell” value [2] was 3/10. For the same molecule, the “Increase, IFNγ/TNFα 2-cytokine-producing cell” value [2] was 3/10, the “Increase, IFNγ/TNFα/IL2 3-cytokine-producing cell” value [2] was 3/10 and the “No Change, IFNγ 1-cytokine-producing cell” value [2] was 3/10. For the same molecule, the “No Change, IFNγ/IL-2 2-cytokine-producing cell” value [2] was 1/10, the “No Change, IFNγ/TNFα 2-cytokine-producing cell” value [2] was 3/10 and the “No Change, IFNγ/TNFα/IL2 3-cytokine-producing cell” value [2] was 2/10. The “Decrease, IFNγ 1-cytokine-producing cell” value [3] was 6/10, the “Decrease, IFNγ/IL-2 2-cytokine-producing cell” value [3] was 4/10 and the “Decrease, IFNγ/TNFα 2-cytokine-producing cell” value [3] was 5/10. The “Decrease, IFNγ/TNFα/IL2 3-cytokine-producing cell” value [3] was 3/10, the “Increase, IFNγ 1-cytokine-producing cell” value [3] was 2/10 and the “Increase, IFNγ/IL-2 2-cytokine-producing cell” value [3] was 1/10. For the same molecule, the “Increase, IFNγ/TNFα 2-cytokine-producing cell” value [3] was 3/10, the “Increase, IFNγ/TNFα/IL2 3-cytokine-producing cell” value [3] was 1/10 and the “No Change, IFNγ 1-cytokine-producing cell” value [3] was 2/10. The “No Change, IFNγ/IL-2 2-cytokine-producing cell” value [3] was 5/10, the “No Change, IFNγ/TNFα 2-cytokine-producing cell” value [3] was 2/10 and the “No Change, IFNγ/TNFα/IL2 3-cytokine-producing cell” value [3] was 6/10. The “Decrease, IFNγ 1-cytokine-producing cell” value [4] was 4/10, the “Decrease, IFNγ/IL-2 2-cytokine-producing cell” value [4] was 5/10 and the “Decrease, IFNγ/TNFα 2-cytokine-producing cell” value [4] was 4/10. For the same molecule, the “Decrease, IFNγ/TNFα/IL2 3-cytokine-producing cell” value [4] was 7/10, the “Increase, IFNγ 1-cytokine-producing cell” value [4] was 2/10 and the “Increase, IFNγ/IL-2 2-cytokine-producing cell” value [4] was 4/10. The “Increase, IFNγ/TNFα 2-cytokine-producing cell” value [4] was 4/10, the “Increase, IFNγ/TNFα/IL2 3-cytokine-producing cell” value [4] was 2/10 and the “No Change, IFNγ 1-cytokine-producing cell” value [4] was 4/10. For the same molecule, the “No Change, IFNγ/IL-2 2-cytokine-producing cell” value [4] was 1/10, the “No Change, IFNγ/TNFα 2-cytokine-producing cell” value [4] was 2/10 and the “No Change, IFNγ/TNFα/IL2 3-cytokine-producing cell” value [4] was 1/10. The “Increase + No Change, IFNγ/TNFα/IL2, share of subjects” value (Total CD8T, Healthy Subjects) was 30%, the “Decrease, IFNγ 1-cytokine-producing cell” value [5] was 2/10 and the “Decrease, IFNγ/IL-2 2-cytokine-producing cell” value [5] was 6/10. The “Decrease, IFNγ/TNFα 2-cytokine-producing cell” value [5] was 5/10, the “Decrease, IFNγ/TNFα/IL2 3-cytokine-producing cell” value [5] was 7/10 and the “Increase + No Change, IFNγ/TNFα/IL2” value [5] was 3/10. The “Increase, IFNγ 1-cytokine-producing cell” value [5] was 4/10, the “Increase, IFNγ/IL-2 2-cytokine-producing cell” value [5] was 3/10 and the “Increase, IFNγ/TNFα 2-cytokine-producing cell” value [5] was 3/10. The “Increase, IFNγ/TNFα/IL2 3-cytokine-producing cell” value [5] was 0/10, the “No Change, IFNγ 1-cytokine-producing cell” value [5] was 4/10 and the “No Change, IFNγ/IL-2 2-cytokine-producing cell” value [5] was 1/10. The “No Change, IFNγ/TNFα 2-cytokine-producing cell” value [5] was 2/10, the “No Change, IFNγ/TNFα/IL2 3-cytokine-producing cell” value [5] was 3/10 and the “CD8^+T cells capable of simultaneously producing IFNγ, TNFα and IL-2, treated with metformin” value (healthy subjects, FIG. 2, untreated with metformin 0.11%) was 0.09%. The “ratio of CD8^+T cells producing one kind of cytokine (IFNγ) to the entire CD8^+T cells, metformin” value [6] was 13.18% and 16.70% and 8.18% and 11.64% and 4.62% and 1.68% and 6.23% and 0.95% and 1.87% and 12.00%, the “ratio of CD8^+T cells producing two kinds of cytokines (IFNγ/IL-2) to the entire CD8^+T cells, metformin” value [6] was 0.47% and 0.48% and 0.71% and 0.28% and 0.15% and 0.03% and 0.21% and 0.05% and 0.14% and 0.24% and the “ratio of CD8^+T cells producing two kinds of cytokines (IFNγ/TNFα) to the entire CD8^+T cells, metformin” value [6] was 31.38% and 3.54% and 32.26% and 11.52% and 16.84% and 1.50% and 11.17% and 0.12% and 1.08% and 3.98%. For the same molecule, the “change of IFNγ producing CD8^+T cell ratio by metformin treatment vs control” value [7] was “→ (other cases with no significant differences); also recorded: ↑ (a 10% or more increase by a metformin treatment); also recorded: ↓ (a 10% or more decrease by a metformin treatment)”, the “change of IFNγ/IL-2 producing CD8^+T cell ratio by metformin treatment vs control” value [7] was “↓ (a 10% or more decrease by a metformin treatment); also recorded: ↑ (a 10% or more increase by a metformin treatment); also recorded: → (other cases with no significant differences)” and the “change of IFNγ/TNFα producing CD8^+T cell ratio by metformin treatment vs control” value [7] was “↓ (a 10% or more decrease by a metformin treatment); also recorded: ↑ (a 10% or more increase by a metformin treatment); also recorded: → (other cases with no significant differences)”. For the same molecule, the “multifunctionality of CD8^+T cells by a metformin treatment” value (healthy subjects, judgement from FIG. 2) was “not increased”, the “decrease in multifunctionality (three kinds of cytokines), share of subjects” value [8] was 70% and the “increase in multifunctionality (three kinds of cytokines), share of subjects” value [8] was 0%.
